In US8299111B2, “Compounds which modulate the CB2 receptor” (Boehringer Ingelheim International GmbH, priority 2006, dated 2012):

Molecular target: T1, human CB2R (Homo sapiens, UniProt P34972)
T1 construct: host or cells: CHO cells
Assay: CB2R mediated modulation of cAMP synthesis
Type: cell-based
Settings: found through the use of the above described assays (binding and cAMP); CHO cells expressing human CB2R, forskolin-stimulated cAMP
Protocol: B. CB2R Mediated Modulation of cAMP Synthesis:
CHO cells expressing human CB2R (Euroscreen) were plated at a density of 5000 cells per well in 384 well plates and incubated overnight at 37° C. After removing the media, the cells were treated with test compounds diluted in stimulation buffer containing 1 mM IBMX, 0.25% BSA and 10 uM Forskolin. The assay was incubated for 30 minutes at 37° C. Cells were lysed and the cAMP concentration was measured using DiscoverX -XS cAMP kit, following the manufacturer's protocol. In this setting, agonists will decrease forskolin induced production of cAMP while inverse agonists will further increase forskolin induced production of cAMP. EC50 of agonists were calculated as follows. The maximal amount of cAMP produced by forskolin compared to the level of cAMP inhibited by 1 uM CP55940 is defined as 100%. The EC50 value of each test compound was determined as the concentration at which 50% of the forskolin-stimulated cAMP synthesis was inhibited. Data was analyzed using a four-parameter logistic model. (Model 205 of XLfit 4.0).

T1 sequence (P34972 whole entry): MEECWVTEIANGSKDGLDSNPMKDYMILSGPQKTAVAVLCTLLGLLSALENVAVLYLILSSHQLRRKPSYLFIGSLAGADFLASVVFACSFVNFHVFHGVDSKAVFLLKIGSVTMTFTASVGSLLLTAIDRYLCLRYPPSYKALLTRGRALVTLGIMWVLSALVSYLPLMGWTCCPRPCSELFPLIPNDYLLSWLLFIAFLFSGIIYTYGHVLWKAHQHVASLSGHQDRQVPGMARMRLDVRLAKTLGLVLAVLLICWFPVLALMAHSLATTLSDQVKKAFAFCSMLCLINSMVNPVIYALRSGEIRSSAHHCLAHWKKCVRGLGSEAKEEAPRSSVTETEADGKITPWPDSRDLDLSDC

Compound | agonistic activity
Cc1cc(NC(=O)C(C)(C)S(=O)(=O)c2ccc(Cl)cc2)n(-c2ccccc2)n1 [2-(4-Chloro-benzenesulfonyl)-2-methyl-N-(5-methyl-2-phenyl-2H-pyrazol-3-yl)-propionamide] | agonistic activity
Cc1sc(NC(=O)C(C)(C)S(=O)(=O)c2ccc(Cl)cc2)nc1-c1ccccc1 [2-(4-Chloro-benzenesulfonyl)-2-methyl-N-(5-methyl-4-phenyl-thiazol-2-yl)-propionamide] | agonistic activity
Cc1cc(NC(=O)C(C)(C)S(=O)(=O)c2ccc(Cl)cc2)no1 [2-(4-Chloro-benzenesulfonyl)-2-methyl-N-(5-methyl-isoxazol-3-yl)-propionamide] | agonistic activity
CC(C)(C(=O)Nc1n[nH]c(-c2ccccc2)n1)S(=O)(=O)c1ccc(Cl)cc1 [2-(4-Chloro-benzenesulfonyl)-2-methyl-N-(5-phenyl-2H-[1,2,4]triazol-3-yl)-propionamide] | agonistic activity
CC(C)(C(=O)Nc1nsc(-c2ccccc2)n1)S(=O)(=O)c1ccc(Cl)cc1 [2-(4-Chloro-benzenesulfonyl)-2-methyl-N-(5-phenyl-[1,2,4]thiadiazol-3-yl)-propionamide] | agonistic activity
CC(C)(C(=O)Nc1nnc(-c2ccccc2)s1)S(=O)(=O)c1ccc(Cl)cc1 [2-(4-Chloro-benzenesulfonyl)-2-methyl-N-(5-phenyl-[1,3,4]thiadiazol-2-yl)-propionamide] | agonistic activity
CC(C)(C(=O)Nc1ccc(-c2ccccc2)cn1)S(=O)(=O)c1ccc(Cl)cc1 [2-(4-Chloro-benzenesulfonyl)-2-methyl-N-(5-phenyl-pyridin-2-yl)-propionamide] | agonistic activity
CC(C)(C(=O)Nc1ncc(-c2ccccc2)s1)S(=O)(=O)c1ccc(Cl)cc1 [2-(4-Chloro-benzenesulfonyl)-2-methyl-N-(5-phenyl-thiazol-2-yl)-propionamide] | agonistic activity
CC(C)(C(=O)Nc1nnc(C(F)(F)F)s1)S(=O)(=O)c1ccc(Cl)cc1 [2-(4-Chloro-benzenesulfonyl)-2-methyl-N-(5-trifluoromethyl-[1,3,4]thiadiazol-2-yl)-propionamide] | agonistic activity
CC(C)(C(=O)Nc1ccc(Oc2ccccc2)nc1)S(=O)(=O)c1ccc(Cl)cc1 [2-(4-Chloro-benzenesulfonyl)-2-methyl-N-(6-phenoxy-pyridin-3-yl)-propionamide] | agonistic activity
CC(C)(C(=O)Nc1ncc(C2CCOCC2)s1)S(=O)(=O)c1ccc(Cl)cc1 [2-(4-Chloro-benzenesulfonyl)-2-methyl-N-[5-(tetrahydro-pyran-4-yl)-thiazol-2-yl]-propionamide] | agonistic activity
CC(C)(C(=O)Nc1cccc2ccccc12)S(=O)(=O)c1ccc(Cl)cc1 [2-(4-Chloro-benzenesulfonyl)-2-methyl-N-naphthalen-1-yl-propionamide] | agonistic activity
CC(C)(C(=O)Nc1ccc2ccccc2c1)S(=O)(=O)c1ccc(Cl)cc1 [2-(4-Chloro-benzenesulfonyl)-2-methyl-N-naphthalen-2-yl-propionamide] | agonistic activity
CC(C)(C(=O)Nc1ccccn1)S(=O)(=O)c1ccc(Cl)cc1 [2-(4-Chloro-benzenesulfonyl)-2-methyl-N-pyridin-2-yl-propionamide] | agonistic activity
CC(C)(C(=O)Nc1ccc2ccccc2n1)S(=O)(=O)c1ccc(Cl)cc1 [2-(4-Chloro-benzenesulfonyl)-2-methyl-N-quinolin-2-yl-propionamide] | agonistic activity
CC(C)(C(=O)Nc1cnc2ccccc2c1)S(=O)(=O)c1ccc(Cl)cc1 [2-(4-Chloro-benzenesulfonyl)-2-methyl-N-quinolin-3-yl-propionamide] | agonistic activity
Cc1c(-c2ccccc2)nn(C)c1NC(=O)C(C)(C)S(=O)(=O)c1ccc(Cl)cc1 [2-(4-Chloro-benzenesulfonyl)-N-(2,4-dimethyl-5-phenyl-2H-pyrazol-3-yl)-2-methyl-propionamide] | agonistic activity
Cc1noc(NC(=O)C(C)(C)S(=O)(=O)c2ccc(Cl)cc2)c1C [2-(4-Chloro-benzenesulfonyl)-N-(3,4-dimethyl-isoxazol-5-yl)-2-methyl-propionamide] | agonistic activity
Cc1onc(NC(=O)C(C)(C)S(=O)(=O)c2ccc(Cl)cc2)c1C [2-(4-Chloro-benzenesulfonyl)-N-(4,5-dimethyl-isoxazol-3-yl)-2-methyl-propionamide] | agonistic activity
Cc1nc(NC(=O)C(C)(C)S(=O)(=O)c2ccc(Cl)cc2)sc1C [2-(4-Chloro-benzenesulfonyl)-N-(4,5-dimethyl-thiazol-2-yl)-2-methyl-propionamide] | agonistic activity
CC(C)(C(=O)Nc1nc(-c2ccccc2)c(-c2ccccc2)s1)S(=O)(=O)c1ccc(Cl)cc1 [2-(4-Chloro-benzenesulfonyl)-N-(4,5-diphenyl-thiazol-2-yl)-2-methyl-propionamide] | agonistic activity
CC(C)(C(=O)Nc1nc(C2CCCCC2)cs1)S(=O)(=O)c1ccc(Cl)cc1 [2-(4-Chloro-benzenesulfonyl)-N-(4-cyclohexyl-thiazol-2-yl)-2-methyl-propionamide] | agonistic activity
CC(C)(C(=O)Nc1nc(C2CC2)cs1)S(=O)(=O)c1ccc(Cl)cc1 [2-(4-Chloro-benzenesulfonyl)-N-(4-cyclopropyl-thiazol-2-yl)-2-methyl-propionamide] | agonistic activity
CC(C)(C(=O)Nc1ncc(C#N)s1)S(=O)(=O)c1ccc(Cl)cc1 [2-(4-Chloro-benzenesulfonyl)-N-(5-cyano-thiazol-2-yl)-2-methyl-propionamide] | agonistic activity
Cn1nc(C2CCCCC2)cc1NC(=O)C(C)(C)S(=O)(=O)c1ccc(Cl)cc1 [2-(4-Chloro-benzenesulfonyl)-N-(5-cyclohexyl-2-methyl-2H-pyrazol-3-yl)-2-methyl-propionamide] | agonistic activity
Cn1nc(C2CCCC2)cc1NC(=O)C(C)(C)S(=O)(=O)c1ccc(Cl)cc1 [2-(4-Chloro-benzenesulfonyl)-N-(5-cyclopentyl-2-methyl-2H-pyrazol-3-yl)-2-methyl-propionamide] | agonistic activity

Further lines, results first:

agonistic activity | Compound
agonistic activity | Cc1ccc(NC(=O)C(C)(C)S(=O)(=O)c2ccc(Cl)cc2)nc1 [2-(4-Chloro-benzenesulfonyl)-2-methyl-N-(5-methyl-pyridin-2-yl)-propionamide]
agonistic activity | CC(C)(C(=O)Nc1cc(-c2ccccc2)on1)S(=O)(=O)c1ccc(Cl)cc1 [2-(4-Chloro-benzenesulfonyl)-2-methyl-N-(5-phenyl-isoxazol-3-yl)-propionamide]
agonistic activity | CC(C)(C(=O)Nc1ccc(C(F)(F)F)cn1)S(=O)(=O)c1ccc(Cl)cc1 [2-(4-Chloro-benzenesulfonyl)-2-methyl-N-(5-trifluoromethyl-pyridin-2-yl)-propionamide]
agonistic activity | Cc1cccc(NC(=O)C(C)(C)S(=O)(=O)c2ccc(Cl)cc2)n1 [2-(4-Chloro-benzenesulfonyl)-2-methyl-N-(6-methyl-pyridin-2-yl)-propionamide]
agonistic activity | CC(C)(C(=O)Nc1cccc(C(F)(F)F)n1)S(=O)(=O)c1ccc(Cl)cc1 [2-(4-Chloro-benzenesulfonyl)-2-methyl-N-(6-trifluoromethyl-pyridin-2-yl)-propionamide]
agonistic activity | CC(C)(C(=O)Nc1cccnc1)S(=O)(=O)c1ccc(Cl)cc1 [2-(4-Chloro-benzenesulfonyl)-2-methyl-N-pyridin-3-yl-propionamide]
agonistic activity | Cc1cc(NC(=O)C(C)(C)S(=O)(=O)c2ccc(Cl)cc2)n(C)n1 [2-(4-Chloro-benzenesulfonyl)-N-(2,5-dimethyl-2H-pyrazol-3-yl)-2-methyl-propionamide]
agonistic activity | CC(C)(C(=O)Nc1ccccc1Cl)S(=O)(=O)c1ccc(Cl)cc1 [2-(4-Chloro-benzenesulfonyl)-N-(2-chloro-phenyl)-2-methyl-propionamide]
agonistic activity | CC(C)(C(=O)Nc1cccc(Cl)c1)S(=O)(=O)c1ccc(Cl)cc1 [2-(4-Chloro-benzenesulfonyl)-N-(3-chloro-phenyl)-2-methyl-propionamide]
agonistic activity | CC(C)c1cc(NC(=O)C(C)(C)S(=O)(=O)c2ccc(Cl)cc2)on1 [2-(4-Chloro-benzenesulfonyl)-N-(3-isopropyl-isoxazol-5-yl)-2-methyl-propionamide]
agonistic activity | CC(C)(C(=O)Nc1ccc(Cl)cc1)S(=O)(=O)c1ccc(Cl)cc1 [2-(4-Chloro-benzenesulfonyl)-N-(4-chloro-phenyl)-2-methyl-propionamide]
agonistic activity | CCc1c(C)noc1NC(=O)C(C)(C)S(=O)(=O)c1ccc(Cl)cc1 [2-(4-Chloro-benzenesulfonyl)-N-(4-ethyl-3-methyl-isoxazol-5-yl)-2-methyl-propionamide]
agonistic activity | CCc1ccnc(NC(=O)C(C)(C)S(=O)(=O)c2ccc(Cl)cc2)c1 [2-(4-Chloro-benzenesulfonyl)-N-(4-ethyl-pyridin-2-yl)-2-methyl-propionamide]
